Measurements as given in patent publication US20180318381A1, “Methods of Treatment of Rhabdomyolysis” (University of Pittsburgh - Of the Commonwealth System of …, priority 2015, published 2018).

Legend:
[1] = test system: amyotrophic lateral sclerosis mouse model; conditions: ALS mouse model; cited from earlier work
mice treated with azide = conditions: supplementation at the same time as azide; cited from earlier work
Friedrich's ataxia cells = conditions: in response to oxidative stress; cited from earlier work

CCNC(=O)[C@]12CCC(C)(C)C[C@H]1[C@H]1C(=O)C=C3[C@@]4(C)C=C(C#N)C(=O)C(C)(C)[C@@H]4CC[C@@]3(C)[C@]1(C)CC2 [CDDO-EA, 2-cyano-3,12-dioxooleana-1,9-dien-28-oic acid-ethyl amide]
survival [1]: improve survival

CC(=O)OC[C@H]1O[C@@H](n2ccc(=O)[nH]c2=O)[C@H](OC(C)=O)[C@@H]1OC(C)=O [PN401, uridine triacetate]
survival of the animals (mice treated with azide): improved survival

CC1(C)CC[C@]2(NC(=O)C(C)(F)F)CC[C@]3(C)[C@H](C(=O)C=C4[C@@]5(C)C=C(C#N)C(=O)C(C)(C)[C@@H]5CC[C@]43C)[C@@H]2C1 [RTA408, N-(2-cyano-3,12-dioxo-28-noroleana-1,9(11)-dien-17-yl)-2,2-difluoro-propanamide]
antioxidant gene expression (Friedrich's ataxia cells): improve antioxidant gene expression

CCCCCCC(=O)OCC(COC(=O)CCCCCC)OC(=O)CCCCCC [triheptanoin, 1,3-di(heptanoyloxy)propan-2-yl heptanoate]
decrease in peak CK levels (trend) (patients with LC-FAODs; 7 subjects with peak CK before and after treatment, P=0.1279): 68% | decline in hypoglycemia event rate per year (patients with LC-FAODs; 9 subjects with hypoglycemia problems, P=0.0091): 96% | hospitalizations (patients with LC-FAODs; LC-FAOD patients, FIG. 14): reduced hospitalizations | hypoglycemic hospitalizations (patients with LC-FAODs; LC-FAOD patients, FIG. 14): nearly eliminated | number of days of hospital stay if hospitalized (patients with LC-FAODs; LC-FAOD patients, FIG. 14): reduced | number of hospitalization days with rhabdomyolysis (patients with LC-FAODs; LC-FAOD patients, FIG. 14): decreased | number of hospitalizations with rhabdomyolysis (patients with LC-FAODs; LC-FAOD patients, FIG. 14): did not reduce | peak CK levels (patients with LC-FAODs; after treatment (from 85,855 before), 7 subjects): 27,597 units | hypoglycemia event rate per year (patients with LC-FAODs; after treatment (vs 0.92 before), n=9): 0.04 per year | hypoglycemia-related hospitalization days/year (patients with LC-FAODs; after treatment (vs 8.42 before), n=9, P=0.0257): 0.18 days/year | hospitalization event rate (patients with LC-FAODs; after triheptanoin initiation (vs 1.94 before), n=16): 1.26 | rhabdomyolysis hospitalization days/year (patients with LC-FAODs; after triheptanoin initiation (vs 5.94 before), n=9, P=0.1224): 2.36 days/year | mean hospitalization days/year (patients with LC-FAODs; after triheptanoin initiation (vs 17.55 before), n=15): 5.76 days/year | hypoglycemia in patients (patients with LC-FAODs; patients having long chain FAODs): essentially eliminates hypoglycemia | episodes of rhabdomyolysis (patients with LC-FAODs; patients having long chain FAODs on triheptanoin): continue to have episodes of rhabdomyolysis | decrease in mean hospitalization days/year (patients with LC-FAODs; period after triheptanoin initiation vs before, n=15, P=0.0242): 67%
